A short description of the data set: Pullulan film gliding performance, slanted plane test (smallest gliding angle of film-coated glass plates). It counts as physicochemical. The note with it: smaller angle = better. The procedure:
[…] The mixture is heated to 70° C. under stirring for complete solubilisation and then the stirring is reduced for defoaming. The solution then is used to cast on glass plates of 4 mm thickness to form pullulan films of about 100 μm thickness after drying at room conditions. The pullulan film gliding performance is evaluated by a test on a slanted plan, a method commonly used by gelatine producers. The method determines the smallest angle of inclination of glass plate to provoke the gliding of a film coated glass plate over another one with films face to face. Consequently, the smaller the gliding angle, the better the film gliding performance.

Where [1] appears, read: surfactant 500 ppm/pullulan, cast pullulan film about 100 μm with kappa-carrageenan and potassium acetate.
[2] abbreviates: surfactant 1000 ppm, cast pullulan film about 100 μm.

As for `CCCCCCCCCCCCOS(=O)(=O)[O-].[Na+]` [SLS, sodium lauryl sulphate], the “Pullulan gliding performance (°)” value turned out to be 9 ° under setting [1]; 5 ° under setting [2]; 6 ° (surfactant 5000 ppm, cast pullulan film about 100 μm).

For Polysorbate 20, the “Pullulan gliding performance (°)” value under setting [1] is given as 12 ° and the “Pullulan gliding performance (°)” value under setting [2] is recorded as 12 °.

With Polysorbate 80, the “Pullulan gliding performance (°)” value was 10 ° under setting [1] and 9 ° under setting [2].

For the compound Sorbitan laurate, the “Pullulan gliding performance (°)” value is, setting by setting: under setting [1], 10 °; under setting [2], 8 °.

On to Sorbitan oleate, for which the “Pullulan gliding performance (°)” value is, setting by setting: under setting [1], 9 °; under setting [2], 7 °.

The values are drawn from patent US7267718B2, “Pullulan film compositions” (Warner-Lambert Company, LLC, priority 2000, dated 2007).
